Experimental data taken from US11053248B2, “[1,2,4]triazolo[1,5-a]pyrimidine compounds as PDE2 inhibitors” (Janssen Pharmaceutica NV, priority 2016, dated 2021).
pIC50: −log10 of the molar value. Where two headings read alike, the source gives them in different places.

Columns and labels:
hPDE3B = experiment: In vitro assay PDE3 (SPA, 3H-cAMP); format: biochemical, human; set-up: hPDE3B Emax: unit not given here; details: for hPDE3B pIC50: 0.4 μM cAMP substrate
hPDE10A2 = hPDE10A2 (Homo sapiens, UniProt Q9Y233); experiment: biochemical; details: for IC50: 60 nM cAMP substrate, read-out: hPDE10A2 pIC50 (converted); for Emax: read-out: hPDE10A2 Emax
Protocol: Rat recombinant PDE10A (rPDE10A2) was expressed in Sf9 cells using a recombinant rPDE10A baculovirus construct. Cells were harvested after 48 h of infection and the rPDE10A protein was purified by metal chelate chromatography on Ni-sepharose 6FF. Tested compounds were dissolved and diluted in 100% DMSO to a concentration 100 fold of the final concentration in the assay. Human recombinant PDE10A […] was expressed in Sf9 cells using a recombinant hPDE10A baculovirus that was made and amplified in house. Cells were harvested after 72 h of infection and the hPDE10A protein was purified by metal chelate chromatography on Ni-sepharose. Compound dilutions (0.4 μl) were added in 384 well plates to 20 μl of incubation buffer (50 mM Tris pH 7.8, 8.3 mM MgCl2, 1.7 mM EGTA). […] of rPDE10A or hPDE10A enzyme in incubation buffer was added and the reaction was started by addition of 10 μl substrate to a final concentration of 60 nM cAMP and 0.008 μCi ^3H-cAMP. The reaction was incubated for 60 minutes at room temperature. […] After sedimentation of the beads during 30 minutes the radioactivity was measured in a Perkin Elmer Topcount scintillation counter and results were expressed as cpm. For blanc values the enzyme was omitted from the reaction and replaced by incubation buffer. Control values were obtained by addition of a final concentration of 1% DMSO instead of compound.

hPDE2A = target: T1, hPDE2A (Homo sapiens, UniProt O00408); experiment: In vitro assay PDE2A (SPA, 3H-cGMP); format: biochemical; details: for Emax: read-out: hPDE2A Emax
T1 construct: made in house; host or cells: Sf9 insect cells (baculovirus)
Protocol: Human recombinant PDE2A (hPDE2A) was expressed in Sf9 cells using a recombinant rPDE10A baculovirus construct. Cells were harvested after 48 h of infection and the hPDE2A protein was purified by metal chelate chromatography on Ni-sepharose 6FF. Tested compounds were dissolved and diluted in 100% DMSO to a concentration 100 fold of the final concentration in the assay. Compound dilutions (0.4 μl) were added in 384 well plates to 20 μl of incubation buffer (50 mM Tris pH 7.8, 8.3 mM MgCl2, 1.7 mM EGTA). 10 μl of hPDE2A enzyme in incubation buffer was added and the reaction was started by addition of 10 μl substrate to a final concentration of 10 μM cGMP and 0.01 μCi ^3H-cGMP. The reaction was incubated for 45 minutes at room temperature. […] After sedimentation of the beads during 30 minutes the radioactivity was measured in a Perkin Elmer Topcount scintillation counter and results were expressed as cpm. For blanc values the enzyme was omitted from the reaction and replaced by incubation buffer. Control values were obtained by addition of a final concentration of 1% DMSO instead of compound.

PDE2A = target: T2, PDE2A (Rattus norvegicus, UniProt Q01062); experiment: PDE2 occupancy by ex-vivo autoradiography with [3H]B-17a; format: in vivo; details: rat
T2 construct: from tissue; host or cells: rat brain striatal sections (ex vivo)
T2 sequence (Q01062 1-928): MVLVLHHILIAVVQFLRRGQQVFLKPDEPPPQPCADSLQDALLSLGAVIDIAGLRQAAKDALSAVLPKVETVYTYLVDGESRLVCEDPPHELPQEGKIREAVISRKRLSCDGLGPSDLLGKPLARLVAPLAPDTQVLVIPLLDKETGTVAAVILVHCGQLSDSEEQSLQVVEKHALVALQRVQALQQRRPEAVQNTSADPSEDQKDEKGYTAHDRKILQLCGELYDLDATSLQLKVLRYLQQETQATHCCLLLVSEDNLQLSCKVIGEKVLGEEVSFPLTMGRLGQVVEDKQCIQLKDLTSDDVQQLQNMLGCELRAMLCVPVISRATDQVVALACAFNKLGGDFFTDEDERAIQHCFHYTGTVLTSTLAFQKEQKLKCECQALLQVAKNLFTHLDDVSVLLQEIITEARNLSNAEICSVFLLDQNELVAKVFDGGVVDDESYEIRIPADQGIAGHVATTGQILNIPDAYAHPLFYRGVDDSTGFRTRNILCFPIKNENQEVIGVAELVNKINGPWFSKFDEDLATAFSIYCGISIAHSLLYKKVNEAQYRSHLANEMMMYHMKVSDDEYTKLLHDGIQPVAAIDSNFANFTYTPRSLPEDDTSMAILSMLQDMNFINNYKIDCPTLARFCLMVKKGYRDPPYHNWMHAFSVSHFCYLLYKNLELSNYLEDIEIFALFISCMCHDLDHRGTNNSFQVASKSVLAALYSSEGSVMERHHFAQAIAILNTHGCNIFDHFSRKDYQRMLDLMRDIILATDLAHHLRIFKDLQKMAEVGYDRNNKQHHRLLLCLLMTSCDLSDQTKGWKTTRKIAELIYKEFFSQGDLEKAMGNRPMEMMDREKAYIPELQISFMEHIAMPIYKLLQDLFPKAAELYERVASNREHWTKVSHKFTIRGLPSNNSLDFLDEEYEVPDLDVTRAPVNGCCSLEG
Protocol: PDE2 Occupancy by Test Compounds Methods
Brains were immediately removed from the skull and rapidly frozen in dry-ice cooled 2-methylbutane (−40° C.).
After thawing, sections were dried under a cold stream of air and incubated for one minute with 30 nM [^3H]B-17a in Tris-HCl (50 mM, pH7.4) containing 0.3% BSA. Brain sections from drug-treated and vehicle-treated animals were incubated in parallel. […] After incubation, the excess of [^3H]B-17a was washed off in ice-cold buffer 2 times 10 minutes, followed by a quick dip in distilled water. The sections were then dried under a stream of cold air.
Brain sections were loaded in a β-imager (Biospace, Paris) for 4 h and radioactivity emerging from delineated brain area was quantified using the Beta vision program (Biospace, Paris). Specific binding was determined as the difference between total binding in the striatum and non-specific binding in the cerebellum. Percentage receptor occupancy of the drug administered to the animal corresponded to 100% minus the percentage receptor labeled in the treated animal. For the determination of ED50-values, the percentage of receptor occupancy was plotted against dose and the sigmoidal log dose-effect curve of best fit was calculated by non-linear regression analysis, using the GraphPad Prism program.

[1] = route SC (subcutaneous), 10 mg/kg, male Wistar rats, striatum, percentage occupancy, read-out: PDE2 occupancy at 10 mg/kg
[2] = po, read-out: PDE2 occupancy at 10 mg/kg, route PO (oral), 10 mg/kg, male Wistar rats, striatum, percentage occupancy

T1 sequence (O00408 whole entry): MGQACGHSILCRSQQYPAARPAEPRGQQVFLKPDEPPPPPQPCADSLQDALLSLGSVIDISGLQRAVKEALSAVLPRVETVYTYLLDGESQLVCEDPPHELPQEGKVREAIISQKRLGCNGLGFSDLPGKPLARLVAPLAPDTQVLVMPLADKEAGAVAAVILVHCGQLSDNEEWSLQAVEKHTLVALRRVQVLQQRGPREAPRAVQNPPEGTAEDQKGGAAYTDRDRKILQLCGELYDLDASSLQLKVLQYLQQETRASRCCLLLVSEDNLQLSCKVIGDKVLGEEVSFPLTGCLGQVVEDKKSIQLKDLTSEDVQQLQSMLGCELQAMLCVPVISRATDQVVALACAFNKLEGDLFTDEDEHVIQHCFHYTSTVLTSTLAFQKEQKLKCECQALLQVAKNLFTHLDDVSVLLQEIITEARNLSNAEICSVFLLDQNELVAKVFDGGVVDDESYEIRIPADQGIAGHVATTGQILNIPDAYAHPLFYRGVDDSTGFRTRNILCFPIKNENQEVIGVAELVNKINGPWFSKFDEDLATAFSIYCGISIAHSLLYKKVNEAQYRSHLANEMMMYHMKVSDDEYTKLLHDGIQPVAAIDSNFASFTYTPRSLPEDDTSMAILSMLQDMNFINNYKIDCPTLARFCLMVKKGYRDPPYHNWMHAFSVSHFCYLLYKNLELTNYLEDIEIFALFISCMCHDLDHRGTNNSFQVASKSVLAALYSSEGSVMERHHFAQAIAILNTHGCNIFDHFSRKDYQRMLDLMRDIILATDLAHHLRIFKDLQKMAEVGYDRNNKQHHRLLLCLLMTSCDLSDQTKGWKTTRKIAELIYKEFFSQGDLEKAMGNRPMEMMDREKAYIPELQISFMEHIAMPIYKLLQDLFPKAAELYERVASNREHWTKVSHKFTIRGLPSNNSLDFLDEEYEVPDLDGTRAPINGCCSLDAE
hPDE10A2, sequence (Q9Y233 267-1055): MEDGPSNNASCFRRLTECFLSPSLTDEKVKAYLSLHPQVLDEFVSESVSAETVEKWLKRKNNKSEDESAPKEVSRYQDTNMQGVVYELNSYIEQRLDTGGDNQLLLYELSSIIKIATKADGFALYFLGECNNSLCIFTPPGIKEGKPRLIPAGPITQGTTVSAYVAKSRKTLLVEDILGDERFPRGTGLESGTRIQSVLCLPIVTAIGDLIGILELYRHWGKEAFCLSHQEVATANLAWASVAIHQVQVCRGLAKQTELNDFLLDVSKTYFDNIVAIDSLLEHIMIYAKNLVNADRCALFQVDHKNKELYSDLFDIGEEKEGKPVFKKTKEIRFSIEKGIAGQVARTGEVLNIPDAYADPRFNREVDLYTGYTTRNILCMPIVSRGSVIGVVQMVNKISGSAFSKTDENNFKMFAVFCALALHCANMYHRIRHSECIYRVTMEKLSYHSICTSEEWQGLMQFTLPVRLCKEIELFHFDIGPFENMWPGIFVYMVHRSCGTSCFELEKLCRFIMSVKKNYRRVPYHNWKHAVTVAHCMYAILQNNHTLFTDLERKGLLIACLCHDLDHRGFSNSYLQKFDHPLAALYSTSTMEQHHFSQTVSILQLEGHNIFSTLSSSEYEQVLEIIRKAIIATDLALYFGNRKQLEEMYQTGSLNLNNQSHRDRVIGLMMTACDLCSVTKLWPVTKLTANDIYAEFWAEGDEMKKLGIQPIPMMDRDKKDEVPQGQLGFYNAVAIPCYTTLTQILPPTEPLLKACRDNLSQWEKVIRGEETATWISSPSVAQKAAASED

With `C[C@@H]1CCN(c2cc(C#N)c3cc(Cl)ccc3n2)C[C@H]1c1cc(C(F)F)nc2ncnn12` [Compound 37] the “hPDE3B Emax” value (hPDE3B) was 70, the “hPDE3B pIC50” value (hPDE3B) was 5.17 and the IC50 (hPDE10A2) was 363 nM. It also gave an Emax (hPDE10A2) of 96%, a melting point of 235.11 °C and an IC50 (hPDE2A; 10 μM cGMP substrate, read-out: hPDE2A pIC50 (converted)) of 129 nM. For the same compound, the Emax (hPDE2A) was 102%.

For `C[C@@H]1CCN(c2nccc3cccnc23)C[C@H]1c1cc(C(F)F)nc2ncnn12` [Compound 23], the “hPDE3B Emax” value (hPDE3B) was 54, the “hPDE3B pIC50” value (hPDE3B) was less than 5 and the IC50 (hPDE10A2) was 661 nM. For the same compound, the Emax (hPDE10A2) was 93%, the melting point was 111.34 °C and the receptor occupancy at 10 mg/kg (PDE2A; [1]) was 5%. It also gave a pIC50 (hPDE2A) of 7.13 and an Emax (hPDE2A) of 95%.

In the case of `C[C@@H]1CCN(c2nccc3cccc(F)c23)C[C@H]1c1cc(C(F)F)nc2ncnn12` [Compound 20], the “hPDE3B Emax” value (hPDE3B) was 81, the “hPDE3B pIC50” value (hPDE3B) was 5.41 and the IC50 (hPDE10A2) was 269 nM. The Emax (hPDE10A2) was 97%, the melting point was 179.73 °C and the receptor occupancy at 10 mg/kg (PDE2A; [2]) was 18%. It also gave a pIC50 (hPDE2A) of 7.43 and an Emax (hPDE2A) of 100%.

With `C[C@H]1CCN(c2nccc3ccc(Br)cc23)C[C@@H]1c1cc(C(F)F)nc2ncnn12` [Compound 29] the “hPDE3B Emax” value (hPDE3B) was 99, the “hPDE3B pIC50” value (hPDE3B) was 5.85 and the IC50 (hPDE10A2) was 2510 nM. The Emax (hPDE10A2) was 84%, the melting point was 134.49 °C and the pIC50 (hPDE2A) was 5.53. It also gave an Emax (hPDE2A) of 8%.

With `C[C@@H]1CCN(c2ncc(Cl)c3ccccc23)C[C@H]1c1cc(C(F)F)nc2ncnn12` [Compound 6] the “hPDE3B Emax” value (hPDE3B) was 67, the “hPDE3B pIC50” value (hPDE3B) was 5.21 and the IC50 (hPDE10A2) was 417 nM. For the same compound, the Emax (hPDE10A2) was 101%, the receptor occupancy at 10 mg/kg (PDE2A; [2]) was 3% and the pIC50 (hPDE2A) was 8.05. The Emax (hPDE2A) was 99%.

For `C[C@@H]1CCN(c2nccc3ccccc23)C[C@H]1c1cc(C(F)F)nc2ncnn12` [Compound 7], the “hPDE3B Emax” value (hPDE3B) was 69, the “hPDE3B pIC50” value (hPDE3B) was 5.22 and the IC50 (hPDE10A2) was 617 nM. It also gave an Emax (hPDE10A2) of 98%, an ED50 (PDE2A; po, read-out: PDE occupancy ED50, route PO (oral), male Wistar rats, dose producing 50% occupancy) of 29 mg/kg and a receptor occupancy at 10 mg/kg (PDE2A; sc, read-out: PDE2 occupancy at 10 mg/kg, route SC (subcutaneous), 10 mg/kg, male Wistar rats, striatum, percentage occupancy) of 81%. For the same compound, the pIC50 (hPDE2A) was 7.97 and the Emax (hPDE2A) was 101%.

In the case of `Cc1cccc2ccnc(N3CC[C@@H](C)C(c4cc(C(F)F)nc5ncnn45)C3)c12` (some centres unmarked) [Compound 41], the “hPDE3B Emax” value (hPDE3B) was 65, the “hPDE3B pIC50” value (hPDE3B) was 5.14 and the IC50 (hPDE10A2) was 4680 nM. For the same compound, the Emax (hPDE10A2) was 76%, the receptor occupancy at 10 mg/kg (PDE2A; [1]) was -8% and the pIC50 (hPDE2A) was 6.51. For the same compound, the Emax (hPDE2A) was 99%.

With `C[C@@H]1CCN(c2ccccn2)C[C@H]1c1cc(C(F)F)nc2ncnn12.Cl` [Compound 32] the “hPDE3B Emax” value (hPDE3B) was 38, the “hPDE3B pIC50” value (hPDE3B) was less than 5 and the IC50 (hPDE10A2) was 1660 nM. The Emax (hPDE10A2) was 87%, the receptor occupancy at 10 mg/kg (PDE2A; po, read-out: PDE2 occupancy at 10 mg/kg) was 18% and the pIC50 (hPDE2A) was 6.77. It also gave an Emax (hPDE2A) of 86%.
